In assay [1] the test system is scopolamine-induced memory deficit rat model. Put plainly: Passive avoidance test in scopolamine-induced memory deficit model. It counts as in vivo. The settings on record: 24 hrs after shock. As to the method:
(§1) Ethology test such as passive avoidance test and radial maze test were performed for Artemisia apiaceae. In the case of passive avoidance test, the control group, the scopolamine-treated group (3 mg/kg, i.p.), the tacrine-treated group after scopolamine treatment (10 mg/kg p.o.) and the Artemisia apiaceae extract-treated group were shocked. After 24 hrs, entering time to dark chamber (step-through latency, STL) was measured. […] Furthermore, in order to verify enhancement in more specific learning ability, acquisition test in which an error frequency is measured was performed using 8-arm radial maze.

The next assay relates to scopolamine-treated rat. Put plainly: 8-arm radial maze acquisition test in scopolamine-treated animals. It counts as in vivo. As to the method: as §1

As to `CN1[C@@H]2C[C@@H](OC(=O)[C@H](CO)c3ccccc3)C[C@H]1[C@@H]1O[C@@H]12` [scopolamine], in assay [1] (scopolamine 3 mg/kg i.p., compared with the control group), the “entering time into the dark chamber (step-through latency, STL)” value is listed as “significantly decreased entering time into the dark chamber”.
In the case of `Nc1c2c(nc3ccccc13)CCCC2` [tacrine], the “entering time into the dark chamber (step-through latency, STL)” value in assay [1] (tacrine 10 mg/kg p.o. after scopolamine treatment) is listed as “significantly increased entering time into the dark chamber”. In the assay with scopolamine-treated rat, the “error frequency compared with the scopolamine-treated group” value was “significantly decreased error frequency”. In the assay on scopolamine-treated rat (normal group 1.6, negative control group 3.25), this compound returned an error frequency of 1.75.

(Values after US20130171278A1 (priority 2010, published 2013).)
